From US20260284066A1, “TYK2 INHIBITORS AND COMPOSITIONS AND METHODS THEREOF” (LYNK PHARMACEUTICALS CO. LTD., priority 2023, published 2026) come the findings set out here.

≈ marks a conversion by molar mass, not a printed value. Read-outs that look alike come from different tables or passages of the source.

Data set [1] concerns the target T1, JAK1-JH2 domain (Homo sapiens, UniProt P23458).
T1 construct: JAK1-JH2 domain or TYK2-JH2 domain enzyme
Description: Binding activity test for JAK1 JH2 domain (Tb-antibody/tracer FRET). Conditions: read-out: JAK1 JH2 Binding IC50. The procedure: Binding Activity test for JH2 domain of JAK and TYK2
75 nL DMSO for high control and low control.
For low control, add 5 μL/well assay buffer. […] After enzyme system prepared, add 5 μL of Tb-antibody solution into each wells of assay plate. […] After Tb-antibody added, also add 5 μL of tracer into the assay plate. […] Incubate for 60 mins at 25° C. firstly and then continue to incubate the plate at 4° C. overnight. Read by envision in FRET mode. The Luminescence value was recorded by a multi-label reader Envision (PerkinElmer). Inhibition Rate was calculated relative to vehicle (DMSO) treated control wells using following formula:
wherein • RLU_compound=the relative light unit of cells treated with test compounds • RLU_low control=the relative light unit of medium with DMSO only • RLU_high control=the relative light unit of cells treated with DMSO only

For data set [2], the target named is T2, TYK2-JH2 domain (Homo sapiens, UniProt P29597).
T2 construct: JAK1-JH2 domain or TYK2-JH2 domain enzyme
Description: Binding activity test for TYK2 JH2 domain (Tb-antibody/tracer FRET). Conditions: for JAK1/TYK2 selectivity: ratio of JAK1 JH2 to TYK2 JH2 binding IC50; for IC50: read-out: TYK2 JH2 Binding IC50.

In data set [3] the test system is pSTAT1. Description: Phosphorylation inhibition of STAT in human whole blood (IFN-alpha stimulated, flow cytometry). Conditions: T-cell, CD3+ T cells, read-out: pSTAT1 inhibition in hWB (IC50). The format is cell-based. The method, then:
Phosphorylation Inhibition of STAT in Human Whole Blood Testing: The inhibitory potential of test articles in human whole blood assay was evaluated by the method of flow cytometry. IFN-alpha will activate JAK1 and TYK2 kinase in T cells by binding to IFN receptors, and then lead to phosphorylation of STAT1 and STAT2. The phosphorylated STAT1 enter nuclear and promote transcription and expression of IFN-gamma. To evaluate the efficacy of TYK2i in T cells, freshly collected human whole blood will be stimulated with certain unit of human IFN-alpha (Universal Type I IFN (1MU), R&D, 11200-2) for 20 mins in incubator. After stimulation, fix cells with PhosflowTM Fix Buffer I (BD, 557870), and then collect fixed cells by centrifugation (500 g, 8 min). Wash cells once with pre-cooled PBS, and then permeabilize cells with cold Perm Buffer III buffer (BD, 558050) for 45 mins on ice. Collect cells by centrifugation (600 g, 8 min) and washed twice with cold PBS. Stain cells with anti-human CD3(FITC Mouse Anti-Human CD3, BD, 555332) and anti-pSTAT1_Y701 (Alexa Fluor 647 Mouse Anti-Stat1 ([…]), BD, 612597) antibodies. Detect pSTAT1 by flow cytometry (CytoFlex S) and analyze data with FlowJo and GraphPad Prism 8 software. IC50 values of test articles were determined using 4-parameter logistic equation.

The nature of data set [4]: Kinetic solubility. The note with it: 100 mM pH 7.4 phosphate buffer, 1% DMSO, room temperature, read-out: Kinetics Solubility_PBS7.4. It is filed as physicochemical. The procedure: Aliquots of 8 μL of reference and test compound stock solutions (10 mM/5 mM) are added into 792 μL of 100 mM pH 7.4 phosphate buffer. The final DMSO concentration is 1%. Sample tubes are shaken for 2 hours at 1000 rpm at room temperature. Samples are centrifuged at 12000 rpm for 10 min to precipitate un-dissolved particles. And transfer the supernatants to a new tube or plate. Add 5 μL of samples (no diluted, 10 times diluted and 100 times diluted) and standard curve samples to 95 μL of ACN containing IS for LC-MS/MS analysis.

Data set [5] in a line: Microsomal metabolic stability assay. The format is in vitro ADME, human. Conditions: for microsomal CLint at 1 µM / half-life at 1 µM: human, liver microsomes, pH 7.4, human liver microsomes 0.5 mg/mL; for microsomal CLint at 1 µM: read-out: Human LM Clint; for half-life at 1 µM: read-out: Human LM T½. The procedure: Microsomal Metabolic Stability Assay
Microsomes were pre-incubated with test compound or control compounds for 5 min at 37° C. in 100 mM potassium phosphate buffer, pH 7.4, 1.0 mM EDTA. The reaction was initiated by addition of 15 μL of the NADPH regenerating system to 30 μL of each incubation mixture per time point. The final incubation condition was composed of 0.5 mg/mL microsomal protein, 1 μM test article/positive control, 2 mM NADPH. The 0-minute samples were prepared by addition of a 30 μL aliquot of each incubation mixture to 135 μL quench reagent to precipitate proteins. And then a 15 μL aliquot of the NADPH regenerating system was added. At 5, 15, 30 and 45 minutes, the reaction will be stopped by the addition of cold acetonitrile solution containing internal standard. The samples taken at all time points were centrifuged at 5000×g for 15 minutes. 50 μL of supernatant are taken into 96-well assay plates pre-added with 50 μL ultrapure water, and then analyzed by LC/MS/MS.
Concentrations of test articles, control compounds in the samples were determined by using LC/MS/MS method. Plotting of the chromatograms and peak area integrations are carried out by Analyst (AB Sciex).
In the determination of the in vitro elimination constant (ke) of the control compounds, the analyte/internal standard peak area ratios will be converted to percentage remaining (% Remaining) with the following equation:
The CLint of microsomes was calculated using the formula: CLint (mic)=0.693/T1/2/mg microsome protein per mL. The slope was measured by the natural logarithm of the percentage of the residual compound and time, T1/2 was calculated according to the following formula.

Where [6] appears, read: human liver microsomes 0.5 mg/mL, 1 μM.

T2 sequence (P29597 589-875 limits assumed): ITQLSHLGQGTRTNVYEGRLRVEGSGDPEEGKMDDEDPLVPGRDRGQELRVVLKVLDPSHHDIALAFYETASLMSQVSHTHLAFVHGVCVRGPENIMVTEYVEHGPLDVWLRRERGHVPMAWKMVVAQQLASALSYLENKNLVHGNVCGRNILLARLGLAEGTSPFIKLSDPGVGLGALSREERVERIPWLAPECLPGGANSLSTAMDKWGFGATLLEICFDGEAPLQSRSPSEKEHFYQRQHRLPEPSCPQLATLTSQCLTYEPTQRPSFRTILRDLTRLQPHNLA
T1 sequence (P23458 583-855 limits assumed): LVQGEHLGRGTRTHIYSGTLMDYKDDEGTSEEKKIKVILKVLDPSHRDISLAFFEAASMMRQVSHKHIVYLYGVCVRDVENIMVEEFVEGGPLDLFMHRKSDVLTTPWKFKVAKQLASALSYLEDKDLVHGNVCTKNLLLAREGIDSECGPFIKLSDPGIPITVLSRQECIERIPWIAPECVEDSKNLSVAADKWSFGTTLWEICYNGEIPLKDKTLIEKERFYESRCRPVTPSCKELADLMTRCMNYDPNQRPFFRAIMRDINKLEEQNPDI

Consider `[2H]C([2H])([2H])NC(=O)c1cnc(NC(=O)C2CC2)cc1Nc1ccc2ccn(C([2H])([2H])[2H])c2c1OC` [Example 15, 6-(Cyclopropanecarboxamido)-4-((7-methoxy-1-(methyl-d3)-1H-indol-6-yl)amino)-N-(methyl-d3)nicotinamide], for which the half-inhibitory concentration (IC50) in data set [1] is 1.47 nM; in data set [2], 0.094 nM; in data set [3], 205 nM. For the same molecule, in data set [2], the JAK1/TYK2 selectivity was 15.64.
On to `[2H]C([2H])([2H])NC(=O)c1cnc(NC(=O)[C@H]2C[C@H]2F)cc1Nc1ncc2cnn(CC(F)(F)F)c2c1OC` [Example 10, 6-((1R,2R)-2-fluorocyclopropane-1-carboxamido)-4-((7-methoxy-1-(2,2,2-trifluoroethyl)-1H-pyrazolo[4,3-c]pyridin-6-yl)amino)-N-(methyl-d3)nicotinamide], for which, in data set [4] (aqueous buffer), the solubility kinetic at 2 h was 29 µM (≈ 14 µg/mL). For the same molecule, the half-maximal inhibitory concentration (IC50) in data set [1] came to 35.1 nM. Further, in data set [2], the JAK1/TYK2 selectivity was 86.04 and the half-inhibitory concentration (IC50) is 0.408 nM. Also, in data set [5], the microsomal CLint at 1 µM worked out at 4.49 µL/min/mg and the half-life at 1 µM was determined as 5.15 h.
With `[2H]C([2H])([2H])NC(=O)c1cnc(NC(=O)C2CC2)cc1Nc1ccc2cnn(CC(C)(F)F)c2c1OC` [Example 2, 6-(Cyclopropanecarboxamido)-4-((1-(2,2-difluoropropyl)-7-methoxy-1H-indazol-6-yl)amino)-N-(methyl-d3)nicotinamide], in data set [1], the IC50 stood at 18.9 nM. Besides, in data set [2], the JAK1/TYK2 selectivity stood at 78.97 and the 50% inhibitory concentration (IC50) came to 0.239 nM. Moreover, in data set [3], the IC50 was 327 nM. For the same molecule, in data set [5], the microsomal CLint at 1 µM is 53.8 µL/min/mg and the half-life at 1 µM was determined as 0.429 h.
Regarding `[2H]C([2H])([2H])NC(=O)c1cnc(NC(=O)C2CC2)cc1Nc1ncc2cnn(C(C)C(F)(F)F)c2c1OC` (single isomer, unassigned) [Example 3B, (S*)-6-(Cyclopropanecarboxamido)-4-((7-methoxy-1-(1,1,1-trifluoropropan-2-yl)-1H-pyrazolo[4,3-c]pyridin-6-yl)amino)-N-(methyl-d3)nicotinamide], in data set [4] (aqueous buffer), the solubility kinetic at 2 h was found to be 12.8 µM (≈ 6.13 µg/mL). Also, the concentration for half-maximal inhibition (IC50) in data set [1] was determined as 114 nM. Besides, in data set [2], the JAK1/TYK2 selectivity is listed as 141.36 and the IC50 is 0.805 nM. Also, the “Human LM Clint” value in data set [5] (setting [6]) stood at 5.33 µL/min/mg. Also, in data set [5], the half-life at 1 µM was found to be 4.33 h.
Turning to `[2H]C([2H])([2H])NC(=O)c1cnc(Nc2ccn(C)n2)cc1Nc1ncc2cnn(CC(C)(F)F)c2c1OC` [Example 22, 4-((1-(2,2-Difluoropropyl)-7-methoxy-1H-pyrazolo[4,3-c]pyridin-6-yl)amino)-N-(methyl-d3)-6-((1-methyl-1H-pyrazol-3-yl)amino)nicotinamide], in data set [4] (aqueous buffer), the solubility kinetic at 2 h turned out to be 19.8 µM (≈ 9.39 µg/mL). The IC50 in data set [1] turned out to be 297 nM. Further, in data set [2], the JAK1/TYK2 selectivity turned out to be 113.31 and the IC50 amounted to 2.62 nM. Further, in data set [5], the microsomal CLint at 1 µM came out at 9.25 µL/min/mg and the half-life at 1 µM turned out to be 2.5 h.
`[2H]C([2H])([2H])NC(=O)c1cnc(Nc2cc(CN3CCOCC3)n(C)n2)cc1Nc1ccc2cnn(CC#N)c2c1OC` [Example 12, 4-((1-(Cyanomethyl)-7-methoxy-1H-indazol-6-yl)amino)-N-(methyl-d3)-6-((1-methyl-5-(morpholinomethyl)-1H-pyrazol-3-yl)amino)nicotinamide]: in data set [4] (aqueous buffer), the solubility kinetic at 2 h came to 7.21 µM (≈ 3.85 µg/mL). The IC50 in data set [1] amounted to 1.62 nM. In addition, in data set [2], the JAK1/TYK2 selectivity is reported as 8.55 and the 50% inhibitory concentration (IC50) stood at 0.189 nM.
Consider “(R*)-6(Cyclopropanecarboxamido)-4((7-methoxy-1-(1,1,1-trifuoropropan-2-yl)-1H-pyrazolo[4,3-c]pyridin-6-yl)amino)-N-(methyl-d3)nicotinamide [Example 3A]”, for which the solubility kinetic at 2 h in data set [4] was 19.05 µM. In addition, in data set [1], the half-maximal inhibitory concentration (IC50) is more than 298 nM. Moreover, in data set [2], the JAK1/TYK2 selectivity was more than 34.94 and the 50% inhibitory concentration (IC50) was 8.54 nM. Also, in data set [5] (setting [6]), the “Human LM Clint” value turned out to be 6.20 µL/min/mg and the “Human LM T½” value was 3.7278 h.
With `[2H]C([2H])([2H])NC(=O)c1cnc(NC(=O)C2CC2)cc1Nc1cc(F)c2ccn(CC)c2c1OC` [Example 16, 6-(Cyclopropanecarboxamido)-4-((1-ethyl-4-fluoro-7-methoxy-1H-indol-6-yl)amino)-N-(methyl-d3)nicotinamide], the results for the IC50 in data set [1], in data set [2] and in data set [3] were 5.82 nM, 0.083 nM and 220 nM, respectively. Besides, the JAK1/TYK2 selectivity in data set [2] came to 70.10.
In the case of `[2H]C([2H])([2H])NC(=O)c1cnc(NC(=O)C2CC2)cc1Nc1ncc2ccn(CC)c2c1OC` [Example 18, 6-(Cyclopropanecarboxamido)-4-((1-ethyl-7-methoxy-1H-pyrrolo[3,2-c]pyridin-6-yl)amino)-N-(methyl-d3)nicotinamide], in data set [4] (aqueous buffer), the solubility kinetic at 2 h was 41.5 µM (≈ 17.1 µg/mL). For the same molecule, the concentration for half-maximal inhibition (IC50) was found to be 4.09 nM in data set [1] and 0.049 nM in data set [2]. The JAK1/TYK2 selectivity in data set [2] is 83.55.
Regarding `[2H]C([2H])([2H])NC(=O)c1cnc(NC(=O)C2CC2)nc1Nc1ncc2cnn(CC(C)(F)F)c2c1OC` [Example 28, 2-(Cyclopropanecarboxamido)-4-((1-(2,2-difluoropropyl)-7-methoxy-1H-pyrazolo[4,3-c]pyridin-6-yl)amino)-N-(methyl-d3)pyrimidine-5-carboxamide], the solubility kinetic at 2 h in data set [4] (aqueous buffer) stood at 20.6 µM (≈ 9.55 µg/mL). The concentration for half-maximal inhibition (IC50) in data set [1] and in data set [2] was more than 298 nM each time.
Regarding `[2H]C([2H])([2H])NC(=O)c1cnc(NC(=O)C2CC2)cc1Nc1ccc2ncn(CC(F)(F)F)c2c1OC` [Example 27, 6-(Cyclopropanecarboxamido)-4-((7-methoxy-1-(2,2,2-trifluoroethyl)-1H-benzo[d]imidazol-6-yl)amino)-N-(methyl-d3)nicotinamide], in data set [4] (aqueous buffer), the solubility kinetic at 2 h was determined as 44.2 µM (≈ 20.6 µg/mL). Further, the half-inhibitory concentration (IC50) in data set [1] was more than 298 nM. In data set [2], the JAK1/TYK2 selectivity was more than 107.8 and the IC50 is 2.77 nM.
On to `[2H]C([2H])([2H])NC(=O)c1cnc(NC(=O)C2CC2)cc1Nc1ncc2ncn(CC(C)(F)F)c2c1OC` [Example 14, 6-(Cyclopropanecarboxamido)-4-((1-(2,2-difluoropropyl)-7-methoxy-1H-imidazo[4,5-c]pyridin-6-yl)amino)-N-(methyl-d3)nicotinamide], for which the solubility kinetic at 2 h in data set [4] (aqueous buffer) worked out at 16.9 µM (≈ 7.82 µg/mL). The IC50 in data set [1] is 38.8 nM. For the same molecule, in data set [2], the JAK1/TYK2 selectivity is given as 217.86 and the 50% inhibitory concentration (IC50) was 0.178 nM. For the same molecule, in data set [5], the microsomal CLint at 1 µM came to 39.2 µL/min/mg and the half-life at 1 µM turned out to be 0.589 h.
